Assay results published in patent publication US20100048705A1, “METHODS OF TREATING AND PREVENTING NEOVASCULARIZATION WITH OMEGA-3 POLYUNSATURATED FATTY ACIDS” (CHILDREN'S MEDICAL CENTER CORPORATION, priority 2006, published 2010).
“Also recorded” adds a separate entry of the source.

What was measured:
[1] = tested on: mice exposed to 75% oxygen; test: Oxygen-induced vessel loss (vaso-obliteration) at P8 after 24 hours of 75% oxygen; format: in vivo, mouse; conditions: 10 ng i.p. P5-P8; FIG. 7c
Procedure: (§1) O2-induced retinopathy (vessel degeneration, re-growth and pathological neovascularization). To induce vessel loss, postnatal day 7 (P7) mice with their nursing mother were exposed to 75% oxygen for times ranging from 24 hours to 5 days^1. To evaluate vaso-obliteration following 24 hours of oxygen exposure, P8 mice were anesthetized at with Avertin (Sigma) and perfused with 50 μl of 120 mg/ml FITC-dextran (2×10^6 molecular weight, FD2000S-5G, Sigma) in saline through the left ventricle^21. Eyes were enucleated and fixed in 4% paraformaldehyde for 2 h at 4° C. Retinas were isolated and whole-mounted with SlowFade Antifade reagent (S2828, Molecular Probes) onto polylysin-coated slides with the photoreceptor side up. Retinas were examined with a fluorescence microscope (Olympus, Tokyo), digitized images using a three-charge-coupled device color video camera (DX-950P, Sony), and processed with NORTHERN ECLIPSE software (Empix Imaging, Toronto). Retinal neovascularization was evaluated 5 days after oxygen exposure (P7-P12) at P17 when the neovascular response is greatest. […]
Quantification of vaso-obliteration and retinal neovascularization. […] Vaso-obliteration and neovascular tuft formation were quantified by comparing the number of pixels in the affected areas with the total number of pixels in the retina. […]
Resolvins and Neurorotectins. […] Retinas collected at P17 from omega-6 or omega-3 polyunsaturated fatty acid fed dams and exposed to high oxygen or room air conditions were analyzed to determine lipid mediator profiles. Polyunsaturated fatty acid derived products were extracted, identified, and quantified using a deuterium-labelled internal standard and MS-MS based mediator informatics^23. […] Following retinal staining and whole-mounting, neovascularization and vaso-obliteration were quantified at P17. Vaso-obliteration was also assessed at P8 (after 24 hours of 75% oxygen exposure) in pups given 10 ng of RvD1 (n=7), RvE1 (n=9), NPD1 (n=7), or saline/EtOH vehicle injections (n=6) i.p. from P5-P8. […]

[2] = tested on: mice with oxygen-induced retinopathy; test: Oxygen-induced retinopathy model: vaso-obliteration and retinal neovascularization at P17; format: in vivo, mouse; conditions: for decrease in vessel loss (VO) compared to vehicle control / decrease in neovascularization (Tufts) compared to vehicle-treated mice: 10 ng i.p. daily P6-P17, read at P17; for decrease in vessel loss (VO) compared to vehicle control / protection from vaso-obliteration compared to saline-injected controls: FIG. 7a; for decrease in neovascularization (Tufts) compared to vehicle-treated mice / neovascularization at P17 compared to saline controls: FIG. 7b; for neovascularization at P17 compared to saline controls / protection from vaso-obliteration compared to saline-injected controls: 10 ng/day i.p. P6-P17
From the text: Retinopathy is modeled in the mouse eye with oxygen-induced vessel loss which precipitates hypoxia-induced retinopathy^1. One-week-old C57BL/6J mice are exposed to 75% oxygen for 5 days and then to room air. A fluorescein-dextran perfusion method is used to assess the vascular pattern. The proliferative neovascular response is quantified by counting the nuclei of new vessels extending from the retina into the vitreous in 6 microns sagittal cross-sections. Cross-sections are also stained for glial fibrillary acidic protein (GFAP). Fluorescein-dextran angiography delineates the entire vascular pattern, including neovascular tufts in flat-mounted retinas. Hyperoxia-induced neovascularization occurs at the junction between the vascularized and avascular retina in the mid-periphery. Retinal neovascularization occurs in all the pups between postnatal day 17 and postnatal day 21. This serves as a reproducible and quantifiable mouse model of oxygen-induced retinal neovascularization for the study of pathogenesis of retinal neovascularization as well as for the study of medical intervention for ROP and other retinal angiopathies in humans. This model allows assessment of retinal vessel loss, vessel re-growth after injury and pathological angiogenesis^1.
Litters of mice were subjected to the oxygen induced retinopathy model. Briefly, mice (pups with mothers) on normal chow were placed in 75% oxygen at postnatal day 7, and kept at 75% oxygen for five days. Mice were then returned to room air. During this room air phase (P12-P17) the retina becomes hypoxic due to the vessel regression that occurred while mice were in hyperoxia. Here mice were given either an omega-3 or omega-6 LCPUFA diet. At p12 (once out of oxygen, after vessel loss) or at P15 (a few days later as retinopathy was setting in).
Animals. These studies adhered to the ARVO Statement for the Use of Animals in Ophthalmic and Vision Research. Fat-1 transgenic mice contain a humanized fat-1 cDNA driven by the cytomegalovirus enhancer and a chicken β-actin promoter^9. Fat-1 and control dams were fed a defined diet with elevated omega-6 polyunsaturated fatty acids. For diet studies C57Bl/6 mothers at delivery (unless otherwise indicated for FIG. 12) were fed a defined rodent diet with 10% (w/w) safflower oil containing 2% omega-6 polyunsaturated fatty acids (AA) and no omega-3 polyunsaturated fatty acids or the same defined diet except for 2% omega-3 polyunsaturated fatty acids (DHA and EPA) and no omega-6 polyunsaturated fatty acids (AA). (Table 1) Diets were stable over time and with oxygen exposure (Table 2), unless otherwise indicated.
as §1, with “greatest. P17 mice were given a lethal dose of Avertin (Sigma) and their eyes were enucleated and fixed in 4% paraformaldehyde for 2 h at 4° C.” for “greatest.”

[3] = tested on: TNF-α; conditions: literature refs 14, 15, 16; cited from earlier work

| Molecule | oxygen-induced vessel loss at P8 versus saline-injected control [1] | decrease in vessel loss (VO) compared to vehicle control [2] [%] | decrease in neovascularization (Tufts) compared to vehicle-treated mice [2] [%] | neovascularization at P17 compared to saline controls [2] | protection from vaso-obliteration compared to saline-injected controls ([2]; P17) | TNF-α mRNA expression levels in inflammatory models [3] | vaso-obliteration versus fellow saline-injected eye ([2]; intraocular (intravitreous) 12.5 μg at P12, omega-6 fed mice, P17, FIG. 11a) | retinal neovascularization versus fellow saline-injected eye ([2]; intraocular (intravitreous) 12.5 μg at P12, omega-6 fed mice, P17, FIG. 11b) | vaso-obliteration (vessel loss) versus saline injected controls ([2]; intraperitoneal, 500 μg/mouse at P7, P12, P14, P16, omega-6 fed mice, P17, FIG. 10a) | pathologic neovascularization versus saline injected controls ([2]; intraperitoneal, 500 μg/mouse at P7, P12, P14, P16, omega-6 fed mice, P17, FIG. 10b) |
| --- | --- | --- | --- | --- | --- | --- | --- | --- | --- | --- |
| CC/C=C\C[C@H](O)/C=C/C=C\C=C\C=C\[C@@H](O)[C@@H](O)C/C=C\CCC(=O)O [RvD1, 7S,8R,17S-trihydroxy-docosa-4Z,9E,11E,13Z,15E,19Z-hexaenoic acid] | No apparent differences | 40 | 30 | less neovascularization | significant protection | significantly reduce |  |  |  |  |
| CC/C=C\C[C@H](O)\C=C/C=C/C=C/[C@H](O)C/C=C\C/C=C\CCC(=O)O [NPD1, 10R,17S dihydroxy-docosa-4Z,7Z,11E,13E,15Z,19z-hexaneoic acid] | No apparent differences; also recorded: no protective action | 40 | 30 | less neovascularization | significant protection | significantly reduce |  |  |  |  |
| CC[C@@H](O)/C=C/C=C\C[C@@H](O)/C=C/C=C/C=C\[C@@H](O)CCCC(=O)O [RvE1, 5S,12R,18R-trihydroxy-6Z,8E,10E,14Z,16E-eicosapentaenoic acid] | No apparent differences; also recorded: no protective action | 40 | 30 | less neovascularization | significant protection | significantly reduce |  |  |  |  |
| etanercept [reference compound] |  |  |  |  |  |  | significantly reduce | suppressed; also recorded: significantly improved | significantly protected; also recorded: significant reduction | significantly protected; also recorded: significant reduction |
